In US10149470B2, “Methods and compositions for vein harvest and autografting” (Vanderbilt University, priority 2009, dated 2018):
Entries after “also recorded” stand apart in the source; their conditions may differ.

Tests used:
Format in all cases: cell-based
human saphenous vein [1] = test: Intimal thickness of human saphenous vein rings in 14 day organ culture; settings: 50 μM erioglaucine, 14 days culture, compared to Control; FIG. 13
Method: Segments of human saphenous vein were collected prior to preparation of the vein for transplantation into the arterial circulation (unmanipulated, UM) and after surgical preparation (after manipulation, AM) from the same patients in PlasmaLyte and were used within 2 hr of harvest. The segment was cut into ˜1 mm rings and one ring from each group was fixed in formalin (Pre-culture). The other rings were cultured in RPMI medium supplemented with 1% L-glutamine, 1% penicillin/streptomycin and 30% fetal bovine serum at 5% CO2 and 37° C. in the absence (Control) or presence of 50 μM erioglaucine (FCF) for 14 days. After 14 days, the rings were fixed in formalin, sectioned at 5 μm and stained using Verhoff Van Gieson stain. Light micrograph of the rings was captured using an Axiovert 200 and intimal thickness was measured using AxioVision. Data represent % increase of intimal thickness related to basal intimal thickness of the pre-culture ring which was set as 0%. The error bars show the standard error of the mean.

porcine saphenous vein [2] = test: KCl-induced contraction of porcine saphenous vein after stretch injury, with or without dye
Method: Freshly isolated porcine saphenous vein was collected in cold transplant harvest buffer (100 mM potassium lactobionate, 25 mM KH2PO4, 5 mM MgSO4, 30 mM raffinose, 5 mM adenosine, 3 mM glutathione, 1 mM allopurinol, 50 g/L hydroxyethyl starch, pH 7.4). The vessels were tested within 24 hours of harvest and storage in transplant harvest buffer at 4° C. The vein was dissected free of fat and connective tissue and cut into 2 cm long segments. The segments were stretched to twice their resting length (stretched; n=7) or not manipulated (control; n=12). After stretching, the segments from both groups were further divided. A solution of erioglaucine (FCF, 2.6 mM, in 5% propylene glycol and water) or vehicle was then applied with a cotton swab in a longitudinal line to the untreated (FCF; n=8) or the stretched (Stretched+FCF; n=3) vein segments. The segments were incubated at room temperature for 15 min in Plasmalyte and then cut into rings. The rings were suspended in a muscle bath containing a bicarbonate buffer (120 mM NaCl, 4.7 mM KCl, 1.0 mM MgSO4, 1.0 mM NaH2PO4, 10 mM glucose, 1.5 mM CaCl2, and 25 mM […], pH 7.4), bubbled with 95% O2/5% CO2 at 37° C. The rings were manually stretched to 4 g of tension, and maintained at a resting tension of 1 g and equilibrated for ˜2 hr.
Rings from stretched segments were either incubated with 50 μM Allura Red (+Red) or 50 μM of erioglaucine (+FCF) for 30 min. The rings were then allowed to equilibrate in the bicarbonate buffer for before contracting with 110 mM KCl. Force generated was converted to stress (10^5 N/m^2). Data represent relative contractile response to Control rings which was set as 100%.

human saphenous vein [3] = test: KCl-induced contraction of human saphenous vein rings treated with erioglaucine; settings: FIGS. 11A-B
Method: Effect of erioglaucine on human saphenous vein was determined using de-identified discarded segments of human saphenous vein from patients undergoing coronary artery bypass or peripheral vascular bypass surgery (n=4). The veins were stored in a saline solution until the end of the surgical procedure at which time they were placed in cold transplant harvest buffer (100 mM potassium lactobionate, 25 mM KH2PO4, 5 mM MgSO4, 30 mM raffinose, 5 mM adenosine, 3 mM glutathione, 1 mM allopurinol, 50 g/L hydroxyethyl starch, pH 7.4). The vessels were tested within 24 hrs of harvest storage in transplant harvest buffer at 4° C. To test the viability, rings 1.0 mm in width were cut from segments of saphenous vein dissected free of fat and connective tissue, treated with either a solution of erioglaucine (FCF, 2.6 mM, in 5% propylene glycol and water) or vehicle and incubated for 30 min at room temperature. The tissues were then stripped of the endothelium and suspended in a muscle bath containing a bicarbonate buffer, gassed with 95% O2/5% CO2 at 37° C. The rings were manually stretched to 4 g of tension, and was maintained at a resting tension of 1 g was obtained and equilibrated for ˜2 hr. […] The rings were contracted with 110 mM KCl (with equimolar replacement of NaCl in bicarbonate buffer), and the force generated was measured. […]

porcine saphenous vein [4] = test: Intimal thickening of distended porcine saphenous vein rings in 14 day organ culture; settings: 50 μM dye, 14 days culture, distended to >300 mm Hg, compared to Distended-Control; FIG. 14
Method: Fresh porcine saphenous vein was harvested by a no touch method under sterile conditions and stored in cold transplant harvest buffer (100 mM potassium lactobionate, 25 mM KH2PO4, 5 mM MgSO4, 30 mM Raffinose, 5 mM Adenosine, 3 mM Glutathione, 1 mM Allopurinol, 50 g/L Hydroxyethyl starch, pH 7.4). The vessels were used within 24 hr of harvest. The veins were divided into three segments that were left untreated (Unmanipulated, n=7), distended (Distended, n=8) to >300 mm Hg, or distended in the presence of the pressure relief valve (Pop Off, n=7). Each segment was then cut into ˜1 mm rings and one ring from each condition was immediately fixed in formalin (Pre-culture). The other rings were cultured in RPMI medium supplemented with 1% L-glutamine, penicillin/streptomycin and 30% Fetal bovine serum at 5% CO2 and 37° C. in the absence (Control) or presence of either 50 μM erioglaucine (FCF), 50 μM brilliant blue G (BBG) or 50 μM Allura Red (Red) for 14 days. After 14 days, the rings were fixed in formalin, sectioned at 5 μm and stained using Verhoff Van Gieson stain. Light micrograph of the rings was captured using a Axiovert 200 and intimal thickness was measured using AxioVision.

human saphenous vein [5] = test: BzATP-induced contraction of saphenous vein rings after erioglaucine pretreatment; settings: erioglaucine 50-200 μM for 30 min, then 100 μM BzATP; FIG. 12
Method: Human saphenous vein segments were collected after harvest before surgical manipulation from patients undergoing coronary artery bypass or peripheral vascular bypass surgery and stored in PlasmaLyte. The vessels were tested within 2 hours of harvest. Freshly isolated porcine saphenous vein was collected in cold transplant harvest buffer (100 mM potassium lactobionate, 25 mM KH2PO4, 5 mM MgSO4, 30 mM Raffinose, 5 mM Adenosine, 3 mM Glutathione, 1 mM Allopurinol, 50 g/L Hydroxyethyl starch, pH 7.4). The vessels were tested within 24 hours of harvest. Rings 1.0 mm in width were cut from porcine saphenous veins (FIG. 12A, n=2) and unmanipulated human saphenous vein (FIG. 12B, n=4) dissected free of fat and connective tissue. The rings were then stripped of the endothelium and suspended in a muscle bath containing a bicarbonate buffer, bubbled with 95% O2/5% CO2 at 37° C. The rings were manually stretched to 4 g of tension, and was maintained at a resting tension of 1 g was obtained and equilibrated for ˜2 hr. Force measurements were obtained using a Radnoti Glass Technology (Monrovia, Calif.) force transducer (159901A) interfaced with a Powerlab data acquisition system and Chart software (AD Instruments, Colorado Springs, Colo.). Rings were contracted with 110 mM KCl. […] Force was measured and converted to stress. Response was expressed as % of maximal KCl contraction. […]

## CCN(Cc1cccc(S(=O)(=O)[O-])c1)c1ccc(C(=C2C=CC(=[N+](CC)Cc3cccc(S(=O)(=O)[O-])c3)C=C2)c2ccccc2S(=O)(=O)[O-])cc1.[Na+].[Na+] [erioglaucine]
Human saphenous vein [1]
  development of intimal thickness: inhibited the development of intimal thickness; also recorded: reduces intimal thickness
Porcine saphenous vein [2]; 50 μM dye for 30 min on rings from stretched segments, FIG. 10
  restoration of functional viability (contractile response to KCl) after stretch injury: significantly restored contractile response
Porcine saphenous vein [2]; FIG. 9
  restoration of functional viability after stretch injury (in words): restores functional viability
Human saphenous vein [3]
  smooth muscle viability (in words): restores smooth muscle viability
Porcine saphenous vein [4]
  distension induced increases in intimal thickening: inhibited distension induced increases in intimal thickening; also recorded: reduces intimal layer thickening
Human saphenous vein [5]
  BzATP induced contraction: significantly inhibited BzATP induced contraction; also recorded: blocks BzATP-induced contraction
